From patent publication US12286632B2, “Rationally-designed synthetic peptide shuttle agents for delivering polypeptide cargos from an extracellular space to the cytosol and/or nucleus of a target eukaryotic cell, uses thereof, methods and kits relating to same” (Feldan Bio Inc., priority 2016, dated 2025)
Bridge positions count the residues as written; N and C are the ends. Ends that are not written are not given here. I, II: the chains in the order shown.

Assays:
HeLa cells = test: GFP-NLS protein transduction assay (flow cytometry: Pos cells %, viability %, relative fluorescence intensity; microscopy)
in vitro [1] = settings: human, HeLa cells
in vitro [2] = settings: human, HeLa cells; remark: listed apart in the source
[3] = Table 10.3a, Protocol B, HeLa, shuttle 50 μM, GFP-NLS 5 μM, 10 seconds
[4] = Table 10.3e, Protocol B, HeLa, shuttle 20 μM, GFP-NLS 5 μM, 1 minute
[5] = Cell viability (%) (±St Dev.; n = 3)
[6] = Cell viability (%) (±St. Dev.; n = 3)

In the case of “HHHHHHKWKLFKKIGAVLKVLTTGRRRRRRRRR [His-CM18-9Arg]”, the “Cell viability (%) (±St. Dev.; n = 3)” value (HeLa cells; Table 10.1, Protocol B, HeLa, shuttle 50 μM, GFP-NLS 5 μM, 10 seconds) is reported as 45.8 ± 5.4%, the “Cell viability (%) (±St. Dev.; n = 3)” value (HeLa cells; [3]) is reported as 45.8 ± 3.53% and the viability (in vitro [1]) is reported as 31.63 ± 0.11%.

With “HHHHHHKWKLFKKIGAVLKVLTTGYARAAARQARACCCCCC (cysteines drawn unpaired) [His-CM18-PTD4-6Cys]” the “Mean % cells with GFP signal (±St Dev.; n = 3)” value (“Mean % cells … (±St Dev.; n = 3)” for short) (HeLa cells; [4]) was 41.3 ± 4.28%.

For “HHHHHHKWKLFKKIGAVLKVLTTGYGRKKRRQRRRC [His-CM18-TAT-Cys]”, the “Mean % cells with GFP signal (±St. Dev.; n = 3)” value (HeLa cells; [3]) was 49.3 ± 4.1% and the viability at 10 s, 50 µM (in vitro [2]) was 41.4 ± 3.91%.

With “HHHHHHKWKLLRRAAKKAARRYLKLLLKQLKLHHHHHH [FSD1]” the viability (in vitro [2]; [5]) was 60.3 ± 6.18%.

For “HHHHHHLAKLFKWLRALIRQGAKRKTKRASAHHHHHH [FSD17]”, the viability (in vitro [2]; [5]) was 99.1 ± 2.09%.

Substance “HHHHHHLALARWARYFRILAKLKRTKRGQAKAHHHHHH [FSD14]” has a viability (in vitro [2]; [5]) of 92.8 ± 7.42%.

For “HHHHHHLLKLWRRLLKLFRKALRALAKRAKSALKRAQAA [FSN5]”, the viability (in vitro [2]; [6]) was 85.4 ± 6.16%.

In the case of “HHHHHHLLKLWSRLLKLWTQALRALAKRAKALAHHHHHH [FSN6]”, the “Mean % cells … (±St Dev.; n = 3)” value (HeLa cells; Table B3, HeLa cells, GFP-NLS cargo) is reported as 15.74 ± 1.63% and the viability (in vitro [2]; [6]) is reported as 32.6 ± 4.26%.

Work on “HHHHHHWYLALLALYWQRAKAKTRQRRRHHHHHH [FSD6]” yielded a viability (in vitro [2]; [5]) of 88.1 ± 7.66%.

In the case of “I: KWKLFKKIGAVLKVLTTGRQIKIWFQNRRMKWKKC / II: KWKLFKKIGAVLKVLTTGRQIKIWFQNRRMKWKKC (disulfide I:35-II:35) [dCM18-Pen-Cys]”, the viability (in vitro [1]) is reported as 3.36 ± 0.26%.

For “KWKLFKKIGAVLKVLTTGHHHHHHYARAAARQARA [CM18-His-PTD4]”, the “Cell viability (%) (±St. Dev.; n = 3)” value (HeLa cells; [4]) was 57.7 ± 4.2%.

Work on “KWKLFKKIGAVLKVLTTGYARAAARQARAHHHHHH [CM18-PTD4-His]” yielded a viability (in vitro [1]) of 29.5 ± 0.21%.

In the case of “LHHHSHHLIHIWLLFKLKLKKKKAARRARRARRHH [FSD29]”, the viability at 1 min, 10 µM (in vitro [2]; [6]) is reported as 89.8 ± 8.48%.

In the case of LIKLWSRFIKFWTQGRRIKAKLARAGQSWFG [FSN7], the viability (in vitro [2]; [6]) is reported as 93.5 ± 3.61%.

With “MHHHHHHKWKLFKKIGAVLKVLTTGYARAAARQARAC [Met-His-CM18-PTD4-Cys]” the “Mean % cells … (±St Dev.; n = 3)” value (HeLa cells; [4]) was 45.6 ± 3.88%.

“MHHHHHHKWKLFKKIGAVLKVLTTGYGRKKRRQRRRC [M-His-CM18-TAT-Cys]” gave a viability (in vitro [1]) of 33.1 ± 0.4%.

In the case of “RLHHSHHLIHIWLLFKLKLKKKKRAARRARRHHHL [FSD37]”, the viability at 1 min, 10 µM (in vitro [2]; [6]) is reported as 73.9 ± 2.62%.

Work on “WEAKLAKALAKALAKHLAKALAKALKACEA [KALA, reference compound]” yielded a viability (in vitro [1]) of 90.6 ± 4.16%.
